Patent US20250186490A1, “METHOD OF CHEMICALLY TREATING OR CULTIVATING MACROPHAGES AND THEIR THERAPEUTIC APPLICATIONS IN FIBROTIC DISEASES” (MAPONOS THERAPEUTICS INC., priority 2022, published 2025)

How the values were obtained:
[1] = test system: Bone Marrow-Derived Macrophages (BMDM); test: MCP-1 ELISA on culture supernatant of MRCi-treated macrophages cultured under hypoxia; assay type: cell-based, mouse; conditions: then hypoxia, vs untreated
Procedure: (§1) In this example, macrophages were isolated and cultivated from the source of murine bone marrow. Eight-week-old male C57/BL6 mice (The Jackson Laboratory, ME, USA) were sacrificed by cervical dislocation. The tibia and femur were separated, and the bone marrow was flushed out using ice-cold PBS solution. Bone marrow cells were then resuspended into single-cell suspension and washed with ice-cold PBS. The cells were treated with Red Blood Cell Lysis Buffer (MilliporeSigma, MA, USA). After the treatment, the cell suspension was washed with ice-cold PBS then seeded with a culture medium.
(§2) The culture medium for the BMDM used in this example includes RPMI1640 (Thermo Fisher Scientific, MA, USA) containing 10% heat-inactivated Fetal Bovine Serum (Gemini Bio, CA, USA), supplied with 100 ng/ml of Recombinant Mouse M-CSF Protein (R&D Systems, MN, USA). Fresh medium was supplied on day three and day five post isolation. On day six of the culturing process, 1 μM of Rotenone (MilliporeSigma, MA, USA) in DMSO solution was added into the culturing medium and incubated for 2 hours with the cells. Then the culture was replaced with fresh medium and was placed into a hypoxia culture chamber with 1% oxygen supply and 5% carbon dioxide at 37° C. On day seven, the cells were ready for downstream treatments. In the untreated group, only vehicle (DMSO) was added as the control. In addition to Rotenone, the following mitochondrial respiratory chain inhibitors (MRCi) were also tested following the same culturing process: Deguclin (10 μM), Piericidin A (0.1 μM), and Capsaicin (5 μM).
To evaluate the enhanced anti-fibrosis ability of the chemically-treated BMDM, ELISA assays were applied using commercially purchased testing kits. In this example, a Mouse MCP-1 ELISA Kit and a Mouse IP-10 ELISA Kit (CXCL10) (both from Abcam plc, Cambridge, UK) were used. Tests using both kits were performed according to the instructions provided by Abcam. […]

[2] = test system: Bone Marrow-Derived Macrophages (BMDM); test: CXCL10 (IP-10) ELISA on culture supernatant of MRCi-treated macrophages cultured under hypoxia; assay type: cell-based, mouse; conditions: then hypoxia (1% oxygen), vs untreated
Procedure: as §1
as §2, with “In addition to Rotenone, the following mitochondrial respiratory chain inhibitors (MRCi) were also tested following the same culturing process: Deguclin (10 μM), Piericidin A (0.1 μM), and Capsaicin (5 μM).” left out

Question: Which MCP-1 level ([1]; BMDM treated with 0.1 μM Piericidin A) does the source give for `C/C=C(\C)[C@H](O)[C@H](C)/C=C(C)/C=C/C/C(C)=C/Cc1nc(OC)c(OC)c(O)c1C` [Piericidin A] here?
Answer: reduce the MCP-1 level

Question: With `COc1cc(CNC(=O)CCCC/C=C/C(C)C)ccc1O` [capsaicin, Capsaicin] as the compound, how does the MCP-1 level ([1]; BMDM treated with 5 μM capsaicin) read?
Answer: reduce the MCP-1 level

Question: `COc1cc2c(cc1OC)[C@@H]1C(=O)c3ccc4c(c3O[C@@H]1CO2)C=CC(C)(C)O4` [deguelin, Deguelin] was tested. Which “CXCL 10 level” value ([2]; BMDM treated with 10 μM deguelin for 2 hours) did it give?
Answer: increased CXCL 10 level

Question: How did the MCP-1 level ([1]; BMDM treated with 1 μM rotenone) turn out when `C=C(C)[C@H]1Cc2c(ccc3c2O[C@@H]2COc4cc(OC)c(OC)cc4[C@@H]2C3=O)O1` [rotenone, Rotenone] was run?
Answer: reduce the MCP-1 level

Question: What about the “CXCL 10 level” value ([2]; BMDM treated with 1 μM rotenone for 2 hours) of the same compound?
Answer: increased CXCL 10 level
